pKi: −log10 of the molar value. Numbered stars: 1 amine (or outer) side, 2 acyl side, 3 side chain; on linkers, the order of the positions; unused ones are H or OH. Square brackets hold non-standard residues; d marks the D form. Peptide text beside a SMILES is read from it. * marks the point of attachment. Propanoyl(3-indol-3-yl) = O=C(CCc1c[nH]c2ccccc12)*; Propanoyl(3-(4-F-phenyl)) = O=C(CCc1ccc(F)cc1)*; Hydrocinnamoyl(2,4-F2) = O=C(CCc1ccc(F)cc1F)*; dPhe(4-Cl) = N[C@H](Cc1ccc(Cl)cc1)C(=O)O; 1Nal = N[C@@H](Cc1cccc2ccccc12)C(=O)O; Desaminotyrosyl = O=C(CCc1ccc(O)cc1)*; d1Nal = N[C@H](Cc1cccc2ccccc12)C(=O)O; d2Nal = N[C@H](Cc1ccc2ccccc2c1)C(=O)O; Lys(iPr) = CC(C)NCCCC[C@H](N)C(=O)O; NMeY = CN[C@@H](Cc1ccc(O)cc1)C(=O)O; Benzoyl(4-F) = O=C(c1ccc(F)cc1)*; d3Pal = N[C@H](Cc1cccnc1)C(=O)O; Nicotinoyl = O=C(c1cccnc1)*; X5 = C1CCC(N(C2CCCCC2)*)CC1; dOrn = NCCC[C@@H](N)C(=O)O; Morpholide = C1CN(*)CCO1; Orn = NCCC[C@H](N)C(=O)O; CO = O=C([*:1])[*:2]; Sar = CNCC(=O)O

One assay has as its target T1, LHRH receptors (Rattus norvegicus, UniProt P30969).
T1 construct: Pituitary membranes containing LHRH receptors are prepared in batches from quick-frozen rat pituitaries; tissue Hilltop Labs; host or cells: rat pituitary membranes
T1 sequence (P30969 1-327): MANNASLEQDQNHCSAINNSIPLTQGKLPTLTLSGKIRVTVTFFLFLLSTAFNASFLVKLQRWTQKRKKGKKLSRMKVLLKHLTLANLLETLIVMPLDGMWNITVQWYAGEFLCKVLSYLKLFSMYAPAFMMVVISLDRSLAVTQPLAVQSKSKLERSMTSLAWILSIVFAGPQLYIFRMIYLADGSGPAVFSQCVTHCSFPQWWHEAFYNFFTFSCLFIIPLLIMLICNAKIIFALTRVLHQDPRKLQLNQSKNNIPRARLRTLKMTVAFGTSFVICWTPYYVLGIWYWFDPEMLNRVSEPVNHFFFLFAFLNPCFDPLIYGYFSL
The experiment in a line: Receptor Binding (radioligand receptor binding assay). The note with it: Receptor Binding pkI, table 3; rat pituitary membranes, radioiodinated [D-Leu^6 -des Gly^10 ]-LHRH ethyl amide 50 pM, 2 hours at 4° C.
In general, pKi refers to the Ki on a negative log10 scale, so that one unit is a factor of ten. High values mean a low Ki, low ones a high Ki. `CCNC(=O)[C@@H]1CCCN1C(=O)[C@H](CCCNC(=N)N)NC(=O)[C@H](CC(C)C)NC(=O)[C@@H](Cc1c[nH]c2ccccc12)NC(=O)[C@H](Cc1ccc(O)cc1)NC(=O)[C@H](CO)NC(=O)[C@H](Cc1c[nH]c2ccccc12)NC(=O)[C@H](Cc1ccccc1)NC(=O)N(C1CCCCC1)C1CCCCC1` [Compound 126, (2-9)[N-(N-alpha-Dicyclohexylaminocarbonyl)-Phe^2 -D-Trp^6 -Pro^9 NHEt]LHRH] ({X5-CO}-FWSY[dW]LRP-NHEt) showed a pKi of 7.43.

Staying with this assay, now noted: table 3; rat pituitary membranes, radioiodinated [D-Leu^6 -des Gly^10 ]-LHRH ethyl amide 50 pM, 2 hours at 4° C.; read-out: Receptor Binding pkI (converted).
Turning to `CCNC(=O)[C@@H]1CCCN1C(=O)[C@H](CCCNC(=N)N)NC(=O)[C@H](CC(C)C)NC(=O)[C@@H](Cc1c[nH]c2ccccc12)NC(=O)[C@H](Cc1ccc(O)cc1)NC(=O)[C@H](CO)NC(=O)[C@H](Cc1cccc2ccccc12)NC(=O)N1CCOCC1` [Compound 137, N-(N-alpha-Morpholinocarbonyl)-1-Nal-Ser-Tyr-D-Trp-Leu -Arg-ProNHEt] ({Morpholide-CO}-[1Nal]SY[dW]LRP-NHEt), the Ki was 0.263 nM.

As for `CCNC(=O)[C@@H]1CCCN1C(=O)[C@H](CCCNC(=N)N)NC(=O)[C@H](CC(C)C)NC(=O)[C@@H](Cc1c[nH]c2ccccc12)NC(=O)[C@H](Cc1ccc(O)cc1)NC(=O)[C@H](CO)NC(=O)CCc1ccc(O)cc1` [Compound 76, (4-9)[N-(3-(4-Hydroxyphenyl)propionyl) -Ser^4 -D-Trp^6 -Pro^9 NHEt]LHRH] (Desaminotyrosyl-SY[dW]LRP-NHEt), the Ki was 43.7 nM.

`CCNC(=O)[C@@H]1CCCN1C(=O)[C@H](CCCNC(=N)N)NC(=O)[C@H](CC(C)C)NC(=O)[C@@H](CCCNC(=N)N)NC(=O)[C@H](Cc1ccc(O)cc1)NC(=O)[C@H](CO)NC(=O)[C@H](Cc1c[nH]c2ccccc12)NC(=O)[C@H](Cc1ccccc1)NC(=O)N1CCOCC1` [Compound 60, N-(alpha)-Morpholinocarbonyl-Phe-Trp-Ser-Tyr-D-Arg-Leu-Arg-ProNHEt] ({Morpholide-CO}-FWSY[dR]LRP-NHEt): the Ki was 5.25 nM.

As to `CCNC(=O)[C@@H]1CCCN1C(=O)[C@H](CCCNC(=N)N)NC(=O)[C@H](CC(C)C)NC(=O)[C@@H](CCCN)NC(=O)[C@H](Cc1ccc(O)cc1)NC(=O)[C@H](CO)NC(=O)CCc1c[nH]c2ccccc12` [Compound 49, (4-9) [N-(3-(3-indole)propionyl)-Ser^4 -D-Orn^6 -Pro^9 NHEt]LHRH] ({Propanoyl(3-indol-3-yl)}-SY[dOrn]LRP-NHEt), the Ki is 55 nM.

With `CCNC(=O)[C@@H]1CCCN1C(=O)[C@H](CCCNC(=N)N)NC(=O)[C@H](CC(C)C)NC(=O)[C@@H](Cc1ccc2ccccc2c1)NC(=O)[C@H](Cc1ccc(O)cc1)NC(=O)[C@H](CO)NC(=O)[C@@H](Cc1c[nH]c2ccccc12)NC(=O)CCc1ccc(F)cc1` [Compound 94, (3-9)[N-(3-(4-Fluorophenyl)propionyl) -D-Trp^3 -D-2-Nal^6 -Pro^9 NHEt]LHRH] ({Propanoyl(3-(4-F-phenyl))}-[dW]SY[d2Nal]LRP-NHEt), the Ki is 0.309 nM.

In the case of `CCNC(=O)N[C@@H](Cc1ccccc1)C(=O)N[C@@H](Cc1c[nH]c2ccccc12)C(=O)N[C@@H](CO)C(=O)N[C@@H](Cc1ccc(O)cc1)C(=O)N[C@H](Cc1c[nH]c2ccccc12)C(=O)N[C@@H](CC(C)C)C(=O)N[C@@H](CCCNC(=N)N)C(=O)N1CCC[C@H]1C(=O)NCC` [Compound 127, (2-9)[N-(N-alpha-Ethylaminocarbonyl)-Phe^2 -D-Trp^6 -Pro^9 NHEt]LHRH] ({NHEt-CO}-FWSY[dW]LRP-NHEt), the Ki is 0.2 nM.

`CCNC(=O)[C@@H]1CCCN1C(=O)[C@H](CCCN=C(N)N)NC(=O)[C@H](CC(C)C)NC(=O)[C@@H](Cc1c[nH]c2ccccc12)NC(=O)[C@H](Cc1ccc(O)cc1)NC(=O)[C@H](CO)NC(=O)[C@@H](Cc1c[nH]c2ccccc12)NC(=O)CCc1ccc(F)cc1F` [Compound 90, (3-9)[N-(3-(2,4-Difluorophenyl)propionyl) -D-Trp^3,6 -Pro^9 NHEt]LHRH] ({Hydrocinnamoyl(2,4-F2)}-[dW]SY[dW]LRP-NHEt): the Ki is 0.0316 nM.

Regarding `CCNC(=O)[C@@H]1CCCN1C(=O)[C@H](CCCNC(=N)N)NC(=O)[C@H](CC(C)C)NC(=O)[C@@H](Cc1c[nH]c2ccccc12)NC(=O)[C@H](Cc1ccc(O)cc1)NC(=O)[C@H](CO)NC(=O)[C@@H](Cc1ccc(O)cc1)NC(=O)[C@H](Cc1ccccc1)NC(=O)N1CCOCC1` [Compound 108, (2-9)[N-(N-alpha-Morpholinocarbonyl)-Phe^2 -D-Tyr^3 -D-Trp^6 -Pro^9 NHEt]LHRH] ({Morpholide-CO}-F[dY]SY[dW]LRP-NHEt), the Ki was 0.182 nM.

The same assay, now with this note: table 4; rat pituitary membranes, radioligand 50 pM, 2 hours at 4° C.; read-out: Receptor Binding pkI (converted).
As for `CC(C)C[C@H](NC(=O)[C@@H](CCCCNC(=O)c1cccnc1)NC(=O)[C@H](Cc1ccc(O)cc1)N(C)C(=O)[C@H](CO)NC(=O)[C@@H](Cc1cccnc1)NC(=O)CCc1ccc(F)cc1)C(=O)N[C@@H](CCCNC(=N)N)C(=O)N1CCC[C@H]1C(=O)N[C@H](C)C(N)=O` [Compound 171] ({Propanoyl(3-(4-F-phenyl))}-[d3Pal]S[NMeY][dK](Nicotinoyl)LRP[dA]-NH2), the Ki is 0.0676 nM.

With `COc1ccc(C[C@H](NC(=O)[C@H](CO)NC(=O)[C@@H](Cc2cccc3ccccc23)NC(=O)CCc2ccc(F)cc2)C(=O)N[C@H](CCCCNC(=O)c2cccnc2)C(=O)N[C@@H](CC(C)C)C(=O)N[C@@H](CCCCNC(C)C)C(=O)N2CCC[C@H]2C(=O)N[C@H](C)C(N)=O)cc1` [Compound 200, (3-10)[N-(3-(4-Fluorophenyl)propionyl)-D-1-Nal^3 -Tyr^5 (OMe)-D-Lys^6 (N-epsilon-nicotinyl)-Lys^8 (N-epsilon-isopropyl)-D-Ala^10]LHRH] ({Propanoyl(3-(4-F-phenyl))}-[d1Nal]SY(Me)[dK](Nicotinoyl)L[Lys(iPr)]P[dA]-NH2), the Ki was 0.00437 nM.

For the compound `CCNC(=O)[C@@H]1CCCN1C(=O)[C@H](CCCNC(=N)N)NC(=O)[C@H](CC(C)C)NC(=O)[C@@H](Cc1c[nH]c2ccccc12)NC(=O)[C@H](Cc1ccc(O)cc1)NC(=O)[C@H](CO)NC(=O)[C@@H](Cc1ccc(Cl)cc1)NC(=O)CCc1ccc(F)cc1` [Compound 140, (3-9) [N-(3-(4-Fluorophenyl)propionyl) -D-4-Cl-Phe^3 -D-Trp^6 -Pro^9 NHEt]LHRH] ({Propanoyl(3-(4-F-phenyl))}-[dPhe(4-Cl)]SY[dW]LRP-NHEt), the Ki was 0.0891 nM.

Turning to `COc1ccc(C[C@H](NC(=O)[C@H](CO)NC(=O)[C@@H](Cc2cccc3ccccc23)NC(=O)CCc2ccc(F)cc2)C(=O)N[C@H](CCCCN)C(=O)N[C@@H](CC(C)C)C(=O)N[C@@H](CCCNC(=N)N)C(=O)N2CCC[C@H]2C(=O)N[C@H](C)C(N)=O)cc1` [Compound 188, (3-10)[N-(3-(4-Fluorophenyl)propionyl)-D-1-Nal^3 -Tyr^5 (OMe)-D-Lys^6 -D-Ala^10]LHRH] ({Propanoyl(3-(4-F-phenyl))}-[d1Nal]SY(Me)[dK]LRP[dA]-NH2), the Ki was 0.00331 nM.

Take `CCNC(=O)[C@@H]1CCCN1C(=O)[C@H](CCCNC(=N)N)NC(=O)[C@H](CC(C)C)NC(=O)[C@@H](Cc1ccc(Cl)cc1)NC(=O)[C@H](Cc1ccc(O)cc1)NC(=O)[C@H](CO)NC(=O)[C@@H](Cc1c[nH]c2ccccc12)NC(=O)CCc1ccc(F)cc1` [Compound 149, (3-9)[N-(3-(4-Fluorophenyl)propionyl) -D-Trp3-D-4-Cl-Phe^6 -Pro^9 NHEt]LHRH] ({Propanoyl(3-(4-F-phenyl))}-[dW]SY[dPhe(4-Cl)]LRP-NHEt): the Ki is 0.0295 nM.

As for `CCNC(=O)[C@@H]1CCCN1C(=O)[C@H](CCCNC(=N)N)NC(=O)[C@H](CC(C)C)NC(=O)[C@@H](Cc1c[nH]c2ccccc12)NC(=O)[C@H](Cc1ccc(O)cc1)NC(=O)[C@H](CO)NC(=O)[C@H](Cc1cccc2ccccc12)NC(=O)[C@H](Cc1ccccc1)NC(=O)N1CCOCC1` [Compound 237, (2-9)[N-(alpha-Morpholinocarbonyl)-Phe^2-1-Nal^3 -D-Trp^6 -Pro^9 NHEt]LHRH] ({Morpholide-CO}-F[1Nal]SY[dW]LRP-NHEt), the Ki is 0.0355 nM.

For `CC(C)C[C@H](NC(=O)[C@@H](CCCCNC(=O)c1cccnc1)NC(=O)[C@H](Cc1ccc(O)cc1)N(C)C(=O)[C@H](CO)NC(=O)[C@@H](Cc1cccc2ccccc12)NC(=O)CCc1ccc(F)cc1)C(=O)N[C@@H](CCCCNC(C)C)C(=O)N1CCC[C@H]1C(=O)N(C)CC(N)=O` [Compound 255, N-(3-(4-Fluorophenyl)propionyl)-D-1-Nal-Ser-NMeTyr-D-Lys(N-epsilon-nicotinyl)-Leu-Lys(N-epsilon-isopropyl)-Pro-SarNH2] ({Propanoyl(3-(4-F-phenyl))}-[d1Nal]S[NMeY][dK](Nicotinoyl)L[Lys(iPr)]P[Sar]-NH2), the Ki is 0.0151 nM.

For `CC(=O)NCCC[C@H](NC(=O)c1ccc(F)cc1)C(=O)N[C@H](Cc1cccc2ccccc12)C(=O)N[C@@H](CO)C(=O)N(C)[C@@H](Cc1ccc(O)cc1)C(=O)N[C@H](CCCCNC(=O)c1cccnc1)C(=O)N[C@@H](CC(C)C)C(=O)N[C@@H](CCCCNC(C)C)C(=O)N1CCC[C@H]1C(=O)N[C@H](C)C(N)=O` [Compound 218, N-alpha-(4-Fluorobenzoyl)-Orn(N-delta-acetyl)-D-1-Nal-Ser-NMeTyr-D-Lys(N-epsilon-nicotinyl)-Leu-Lys(N-epsilon-isopropyl)-Pro-D-AlaNH2] ({Benzoyl(4-F)}-[Orn](Ac)[d1Nal]S[NMeY][dK](Nicotinoyl)L[Lys(iPr)]P[dA]-NH2), the Ki is 0.832 nM.
